For one test, the system named is allergic rhinitis. The settings on record: in vivo; cited from earlier work.
Test [1] deals with patient population afflicted with eosinophilic severe asthma. The settings on record: patients with eosinophilic severe asthma, Phase IIa; cited from earlier work.
Test [2] relates to participants with persistent asthma uncontrolled on montelukast, positive for C allele of rs12748961 SNP. Kind of test: Randomized, placebo-controlled, double-blind clinical study of Compound A added to montelukast; change from baseline in FEV1. Type of test: in vivo, human. To be noted: for Average Change From Baseline FEV1 (L), Mean: Cmpd A 150 mg + ML. The method, then: The inventors conducted a world-wide, randomized, placebo-controlled, double-blind, parallel group study of the CRTH2 receptor antagonist, {(7R)-4-fluoro-7-[5-(4-fluorobenzyl)-1H-[1,2,3]triazol-1-yl]-6,7,8,9-tetrahydropyrido[1,2-a]indol-10-yl}-acetic acid (hereinafter “Compound A”) in participants with persistent asthma who remained uncontrolled while being maintained on montelukast (ML). At Prescreening Visit 1, participants were tested for the presence of the rs 12748961 SNP to determine eligibility. The primary efficacy analysis compared the effect of Compound A to placebo, when each was added to montelukast, on the average change from baseline in FEV1 using a constrained longitudinal data analysis model.
Eligible participants were male and female participants between the ages of 18 and 65 with persistent asthma for at least 1 year and a documented SNP+test result. Participants also must have had acceptable lung function at Visit 2 and Visit 4 and evidence of reversibility of airway obstruction. Approximately 139 eligible participants whose asthma was uncontrolled during a run-in period of approximately 2 to 4 weeks entered a 6-week double-blind treatment period and were randomized in a 1:1 ratio to receive either Compound A 150 mg and montelukast 10 mg or Compound A 150 mg matching-image placebo and montelukast 10 mg. Randomization was stratified according to the number of C alleles (having either 1 or 2 copies of the allele) at the rs12748961 SNP. The total study duration for each participant was up to 17 weeks.
FIG. 2 is a graphical depiction of the study design. Briefly, salient activities occurring during the study are described below. During a pre-screening visit, a blood sample is collected to assess for the presence of the C-allele of rs12748961 SNP. At the start of the pre-study period, eligible subjects receiving Long-Acting Beta-Agonist (LABA) therapy were asked to discontinue the LABA. During run-in period (approximately 2 to 4 weeks), subjects receive single-blind Compound A 150 mg matching-image placebo and open-label montelukast 10 mg. Subjects taking asthma controller therapies prior to Visit 2 were asked to discontinue or taper off these pre-study medications before randomization while receiving open-label montelukast 10 mg. During the treatment period (approximately 6 weeks): Subjects received double-blind treatment of Compound A 150 mg plus montelukast 10 mg; or Compound A 150 mg matching-image placebo plus montelukast 10 mg.
In order to identify patient groups susceptible to treatment response, the inventors conducted an analysis on pre-specified patient subgroups in the study based on (a) demographic variables (including age, gender, race, weight, height, and body mass index) and (b) baseline characteristics (including duration of asthma, age diagnosed of asthma, asthma controller pre- trial, ICS use, blood eosinophil count, baseline ACQ-6, and smoking history), (c) prior and secondary diagnoses, (d) prior and concomitant therapies, and (e) the number of C alleles of the rs12748961 SNP on asthmatic study subjects who had undergone a clinical trial with a CRTH2 receptor antagonist and the leukotriene antagonist montelukast. The analysis sought to assess whether a mean treatment difference varies across patient subgroups defined by several pre-specified characteristics and who also tested positive for at least one copy of the C allele of the rs12748961 SNP.

Setting [3] is: Cmpd A 150 mg + montelukast 10 mg, full study population.

Here are results for 3 molecules from patent publication US20220259656A1, “BLOOD BIOMARKER AND GENETIC MARKERS ASSOCIATED WITH RESPONSE TO CRTH2 RECEPTOR ANTAGONISTS” (Merck Sharp & Dohme Corp., priority 2019, published 2022).

Structures are written as SMILES.

Turning to `O=C(O)CCn1c2c(c3ccccc31)C[C@H](NS(=O)(=O)c1ccc(F)cc1)CC2` [Ramatroban, 3-((3R)-3-{[(4-fluorophenyl)sulfonyl]amino}-1,2,3,4-tetrahydro-9H-carbazol-9-yl)propanoic acid], the “efficacy in allergic rhinitis” value with allergic rhinitis was “some degree of efficacy”.
Turning to `Cc1c(CC(=O)O)c2cccnc2n1Cc1ccc(S(C)(=O)=O)cc1C(F)(F)F` [fevipiprant, 2-(2-methyl-1-(4-(methylsulfonyl)-2-(trifluoromethyl)benzyl)-1H-pyrrolo[2,3-b]pyridin-3-yl)acetic acid], the sputum eosinophils result in test [1] is given as “reduction of sputum eosinophils”.
As to `O=C(O)Cc1c2n(c3c(F)cccc13)C[C@H](n1nncc1Cc1ccc(F)cc1)CC2` [Compound A, {(7R)-4-fluoro-7-[5-(4-fluorobenzyl)-1H-[1,2,3]triazol-1-yl]-6,7,8,9-tetrahydropyrido[1,2-a]indol-10-yl}-acetic acid], the “Estimated Differences with placebo + ML, Difference in LS Means, FEV1 at Week 4 and Week 6” value in test [2] (Cmpd A 150 mg + ML vs. placebo + ML, full study population) was 107 mL. Besides, the “Estimated Differences With Placebo + ML, LS Mean, FEV1” value was 63 mL in test [2] (Cmpd A 150 mg + ML vs. placebo + ML, subgroup baseline eosinophil count <0.30 × 10^9/L) and 193 mL in test [2] (Cmpd A 150 mg + ML vs. placebo + ML, subgroup baseline eosinophil count >0.30 × 10^9/L). Besides, the “Average Change From Baseline FEV1 (L), Mean” value came out at 0.166 L in test [2] (subgroup baseline eosinophil count <0.30 × 10^9/L) and 0.139 L in test [2] (subgroup baseline eosinophil count >0.30 × 10^9/L). The “Average Change from Baseline in FEV1 (L) at Week 4 and Week 6, Mean” value in test [2] (setting [3]) is 0.156 L. Further, the “Average Change from Baseline in FEV1 (L) at Week 4 and Week 6, Median” value in test [2] (setting [3]) turned out to be 0.091 L. The “FEV1 (L) Average at Week 4 and Week 6, Mean” value in test [2] (Cmpd A 150 mg + montelukast 10 mg, full study population, 6-week treatment) came out at 2.426 L. Further, the “Average Change from Baseline in FEV1 (L) at Week 4 and Week 6, LS Mean” value in test [2] (Cmpd A 150 mg + montelukast 10 mg, full study population, cLDA model) worked out at 0.152 L.
